Values of other authors as cited in patent US8815898B2, “6,7-disubstituted-sioquinoline derivatives and their use” (Montisera Ltd, priority 2010, dated 2014).

SMILES: c1ccc2c(c1)CCNC2 [TIQ]
- hydroxylated (C4 of the isoquinoline backbone) derivative in the urine (most abundant metabolite in urine, 4-hydroxy derivative of the parent): 2.7%
- excreted in urine unchanged (share excreted in urine unchanged): 76%
- exit the brain unchanged (share of compound leaving the brain unchanged): 90.4%
